For series [1], the system named is Haemophilus influenzae. Kind of series: Antibacterial activity against acrB efflux-pump deficient mutant of Haemophilus influenzae. In kind it is functional.
The nature of series [2]: Inhibition of Streptococcus pneumoniae GlmU.
Series [3] is described as follows: Inhibition of Haemophilus influenzae GlmU.
The nature of series [4]: Inhibition of Escherichia coli GlmU.
Series [5] concerns Haemophilus influenzae. Kind of series: Antibacterial activity against acrB efflux-pump deficient mutant of Haemophilus influenzae assessed as inhibition of cell-wall biosynthesis. It counts as functional, organism-based.
Series [6] has as its system Haemophilus influenzae. Kind of series: Antibacterial activity against acrB efflux-pump deficient mutant of Haemophilus influenzae assessed as inhibition of radio-labeled biosynthetic precursor incorporation. It counts as functional, organism-based.
Series [7] has as its system Haemophilus influenzae. Kind of series: Antibacterial activity against acrB efflux-pump deficient mutant of Haemophilus influenzae assessed as inhibition of lipid biosynthesis. It counts as functional, organism-based.
A short description of another series: physchem. The conditions noted are these: buffer, pH 7.4.

The values that follow come from ChEMBL document CHEMBL2203064, “Inhibitors of the acetyltransferase domain of N-acetylglucosamine-1-phosphate-uridylyltransferase/glucosamine-1-phosphate-acetyltransferase (GlmU). Part 2: Optimization of physical properties leading to antibacterial aryl sulfonamides” (Bioorg Med Chem Lett, 2012).

Converted amounts (≈) assume the structure as drawn. The source made the active and inactive calls. The calls are words filed in the database; no cut-off is given here.

Description for physchem: Lipophilicity, log D of the compound at pH 7.4

As for `COc1cc(OC)c(S(=O)(=O)N2c3ccccc3Oc3ccccc32)cc1NC(=O)CCC(=O)O`, the MIC against Haemophilus influenzae [1] worked out at 32 µg/mL (≈ 64.2 µM). In addition, the IC50 (as a rule, the point on the concentration scale where inhibition reaches its midpoint) in series [2] worked out at 14600 nM; in series [3] it was 20 nM; in series [4] it was 10 nM. For the same compound, the inhibition entry in the series on Haemophilus influenzae [5], with Haemophilus influenzae [6] and in the series with Haemophilus influenzae [7] was “Active” throughout.

On to `COc1cc(OC)c(S(=O)(=O)N2c3ccccc3CCC2C)cc1NC(=O)Cc1ccnc(C#N)c1` (stereo unspecified), for which, in the series with Haemophilus influenzae [1], the MIC is more than 128 µg/mL. The figures for the IC50 in series [2], in series [3] and in series [4] were 10000 nM, 670 nM and 680 nM, respectively.

`COc1cc(OC)c(S(=O)(=O)N2c3ccccc3Oc3ccccc32)cc1NC(=O)Cc1ccnc(F)c1` returned an MIC against Haemophilus influenzae [1] of more than 128 µg/mL. The figures for the IC50 in series [2], in series [3] and in series [4] were 9900 nM, 30 nM and 90 nM, respectively. Moreover, the log distribution coefficient (logD) (as a rule, lipophilicity at a set pH, counting ionised and neutral species) in the series “physchem” stood at 3.37.

In the case of `COc1cc(OC)c(S(=O)(=O)N(c2ccccc2)c2ccc(N)cc2)cc1NC(=O)CCC(=O)O`, the MIC against Haemophilus influenzae [1] was more than 64 µg/mL. In addition, the IC50 in series [2] is 40200 nM; in series [3], 400 nM; in series [4], 20 nM.

With `COc1cc(OC)c(S(=O)(=O)N2c3ccccc3Oc3ccccc32)cc1NC(=O)/C=C/C(=O)O`, the MIC with Haemophilus influenzae [1] came to 64 µg/mL (≈ 129 µM). In addition, the IC50 turned out to be 21500 nM in series [2], 20 nM in series [3] and 10 nM in series [4]. The pH-dependent lipophilicity (logD) in “physchem” is -0.71.

In the series with Haemophilus influenzae [1], `COc1cc(O)c(S(=O)(=O)N2c3ccccc3CCC2C)cc1NC(=O)[C@@H]1C(C)[C@H]1C(=O)O` (relative stereo) returned an MIC of 128 µg/mL (≈ 270 µM). Moreover, the IC50 in series [2] is 7840 nM; in series [3] it was 380 nM; in series [4] it was less than 480 nM.

Turning to `COc1cc(OC)c(S(=O)(=O)N2Cc3ccccc3Oc3ccccc32)cc1NC(=O)CCC(=O)O`, the MIC in the series with Haemophilus influenzae [1] turned out to be 32 µg/mL (≈ 62.4 µM). For the same compound, the IC50 worked out at 55000 nM in series [2], 80 nM in series [3] and 30 nM in series [4].

In the series with Haemophilus influenzae [1], `COc1cc(OC)c(S(=O)(=O)N2c3ccccc3Oc3ccccc32)cc1NC(=O)[C@@H]1C(C)[C@H]1C(=O)O` (mixture of isomers) had an MIC of 32 µg/mL. Besides, the 50% inhibitory concentration (IC50) in series [2] amounted to 5300 nM; in series [3] it was 10 nM; in series [4], 30 nM. The compound further yielded a logD in “physchem” of 0.06.

`COc1cc(OC)c(S(=O)(=O)N2c3ccccc3CCC2C)cc1NC(=O)[C@@H]1C(C)[C@H]1C(=O)O` (mixture of isomers) registered an MIC in the series on Haemophilus influenzae [1] of 128 µg/mL. For the same compound, the values for the IC50 in series [2], in series [3] and in series [4] were 5900 nM, 510 nM and 400 nM, respectively. The same compound came in with a logD in “physchem” of -0.39.

`COc1cc(OC)c(S(=O)(=O)N(c2ccccc2)c2ccccc2)cc1NC(=O)CCC(=O)O` came in with an MIC with Haemophilus influenzae [1] of more than 64 µg/mL. The 50% inhibitory concentration (IC50) in series [2] turned out to be 25500 nM; in series [3], 910 nM; in series [4] it was 40 nM.

Compound `COc1cc(O)c(S(=O)(=O)N2c3ccccc3CCC2C)cc1NC(=O)CCC(=O)O` (stereo unspecified) displayed an MIC against Haemophilus influenzae [1] of 32 µg/mL (≈ 71.3 µM). Also, the IC50 turned out to be 46600 nM in series [2], 280 nM in series [3] and 50 nM in series [4]. The compound further gave a logD in “physchem” of -0.27. In addition, the inhibition result with Haemophilus influenzae [5], in the series on Haemophilus influenzae [6] and in the series with Haemophilus influenzae [7] was “Active” throughout.

`COc1cc(OC)c(S(=O)(=O)N2c3ccccc3CCC2C)cc1NC(=O)Cc1ccnc(F)c1` (stereo unspecified) had an MIC in the series on Haemophilus influenzae [1] of more than 128 µg/mL. In addition, the IC50 in series [2] was 9000 nM; in series [3] it was 520 nM; in series [4], 800 nM. The compound also gave a logD in “physchem” of 2.49.

As for `COc1cc(O)c(S(=O)(=O)N2c3ccccc3Oc3ccccc32)cc1NC(=O)[C@@H]1C(C)[C@H]1C(=O)O` (relative stereo), the MIC in the series with Haemophilus influenzae [1] worked out at 32 µg/mL (≈ 62.7 µM). Besides, the IC50 in series [2] was determined as 30300 nM; in series [3], 30 nM; in series [4], 60 nM.

As to `COc1cc(OC)c(S(=O)(=O)N(c2ccc(C)cc2)c2ccc(C)cc2)cc1NC(=O)CCC(=O)O`, in the series with Haemophilus influenzae [1], the MIC worked out at 32 µg/mL (≈ 62.4 µM). In addition, the IC50 is 48000 nM in series [2], 320 nM in series [3] and 40 nM in series [4].

In the series on Haemophilus influenzae [1], `COc1cc(OC)c(S(=O)(=O)N2c3ccccc3Sc3ccccc32)cc1NC(=O)CCC(=O)O` registered an MIC of more than 64 µg/mL. The figures for the 50% inhibitory concentration (IC50) in series [2], in series [3] and in series [4] were 36900 nM, 370 nM and 90 nM, respectively. This compound came in with a pH-dependent lipophilicity (logD) in the series “physchem” of -0.31.

In the series on Haemophilus influenzae [1], `COc1cc(OC)c(S(=O)(=O)N2c3ccccc3CCC2C)cc1NC(=O)CCc1nn[nH]n1` (stereo unspecified) yielded an MIC of more than 64 µg/mL. Moreover, the IC50 was 24700 nM in series [2], 600 nM in series [3] and 430 nM in series [4]. The compound also gave a logD in “physchem” of -0.34.

Consider `COc1cc(OC)c(S(=O)(=O)N(c2ccccc2)c2ccc3ccccc3c2)cc1NC(=O)CCC(=O)O`, for which the MIC against Haemophilus influenzae [1] was determined as 32 µg/mL (≈ 59.9 µM). In addition, the concentration for half-maximal inhibition (IC50) in series [2] amounted to 8400 nM; in series [3], 830 nM; in series [4], 40 nM.

For `COc1cc(OC)c(S(=O)(=O)N2c3ccccc3Oc3ccccc32)cc1NC(=O)Cc1ccncc1`, the MIC against Haemophilus influenzae [1] was found to be 64 µg/mL (≈ 124 µM). Moreover, the values for the IC50 in series [2], in series [3] and in series [4] were 32000 nM, 30 nM and 60 nM, respectively.
